Data published in US5087702A, “Microbial transformation process for producing an antihypertensive product” (Merck & Co., Inc., priority 1991, dated 1992).

Target: T1, Angiotensin II (A II) receptor (Oryctolagus cuniculus, UniProt P34976)
T1 construct: membrane preparation derived from rabbit aortae; tissue Pel-Freeze Biologicals; host or cells: frozen rabbit aortae, membrane preparation
T1 sequence (P34976 1-359): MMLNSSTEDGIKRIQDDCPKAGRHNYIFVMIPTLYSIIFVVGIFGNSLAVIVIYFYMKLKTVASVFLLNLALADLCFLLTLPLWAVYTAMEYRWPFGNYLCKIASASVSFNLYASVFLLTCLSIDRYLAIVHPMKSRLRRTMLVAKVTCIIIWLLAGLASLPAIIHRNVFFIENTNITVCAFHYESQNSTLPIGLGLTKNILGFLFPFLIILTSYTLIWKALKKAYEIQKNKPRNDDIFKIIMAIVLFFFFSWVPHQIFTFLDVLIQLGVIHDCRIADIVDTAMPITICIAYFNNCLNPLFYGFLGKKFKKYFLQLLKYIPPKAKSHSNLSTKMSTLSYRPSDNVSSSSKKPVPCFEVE
Assay: Receptor binding assay using rabbit aortae membrane preparation (displacement of 125I-Sar1Ile8-angiotensin II; the "IC50" assay)
Details: membrane preparation derived from rabbit aortae; 37° C., 90 minutes; read-out: inhibitory concentration (IC50) giving 50% displacement of the total specifically bound 125I-Sar1 Ile8-angiotensin II
Experimental: This assay is also referred to herein as the "IC50 " assay.
RECEPTOR BINDING ASSAY USING RABBIT AORTAE MEMBRANE PREPARATION
Three frozen rabbit aortae (obtained from Pel-Freeze Biologicals) were suspended in 5 mM Tris-0.25M Sucrose, pH 7.4 buffer (50 ml) homogenized, and then centifuged. The mixture was filtered through a cheesecloth and the supernatant was centrifuged for 30 minutes at 20,000 rpm at 4° C. The pellet thus obtained was resuspended in 30 ml of 50 mM Tris-5 mM MgCl2 buffer containing 0.2% Bovine Serum Albumin and 0.2 mg/ml Bacitration and the suspension was used for 100 assay tubes. Samples tested for screening were done in duplicate. To the membrane preparation (0.25 ml) there was added ^125 I-Sar^1 Ile^8 -angiotensin II [obtained from New England Nuclear] (10 ul; 20,000 cpm) with or without the test sample and the mixture was incubated at 37° C. for 90 minutes. The mixture was then diluted with ice-cold 50 mM Tris-0.9% NaCl, pH 7.4 (4 ml) and filtered through a glass fiber filter (GF/B Whatman 2.4" diameter). The filter was soaked in scintillation cocktail (10 ml) and counted for radioactivity using Packard 2660 Tricarb liquid scintillation counter. […]

## CCCc1nc2c(C)ccnc2n1Cc1ccc(-c2ccccc2-c2nnnn2CC2=CC(O)C(O)C(O)C2=O)cc1 (stereo not shown) [Compound I]
  IC50: < 50 µM
